Data taken from patent US20220117938A1, “COMBINATON THERAPY WITH A DON PRODRUG AND AN IMMUNE CHECKPOINT INHIBITOR” (DRACEN PHARMACEUTICALS, INC., priority 2019, published 2022).

Assays:
MC-38 tumors = test: Anti-tumor efficacy of Compound 1 with and without anti-PD-1 in the subcutaneous MC-38 model (Example 2D); format: in vivo, Mus musculus; conditions: for MST: endpoint tumor volume 2000 mm^3; for T/C / TGI: day 16
Method: Female C57BL/6 mice were inoculated subcutaneously at right flank with MC-38 cells for tumor development. Five days after tumor inoculation, 48 mice with tumor size ranging from 50-100 mm^3 (average tumor size 72 mm^3) were selected and assigned into six groups using stratified randomization with 8 mice per group based upon their tumor volumes. The treatments were started from the day of randomization (defined as D0), Group 1 was treated with Vehicle (Tween 80:Ethanol:Saline—5:5:90 v/v/v), s.c., qd×14, Group 2 was treated with Anti-PD-1 10 mg/kg i.p. q4d×4, Group 3 was treated with Compound 1 0.3 mg/kg s.c. q.d.×14, Group 4 was treated with Compound 1 0.3 mg/kg s.c. q.d.×14+Anti-PD-1 10 mg/kg i.p. q4d×4, Group 5 was treated with Compound 1 1 mg/kg s.c. q.d.×14, Group 6 was treated with Compound 1 1 mg/kg s.c. q.d.×14+Anti-PD-1 10 mg/kg i.p. q4d×4. The tumor sizes were measured three times per week during the treatment. The entire study was terminated on D37 after start of the treatment.
Animal Species: Mus musculus; Strain: […]; Age: 6-8 weeks; Sex: female; Body weight (at treatment start): 18-22 g.
The MC-38 tumor cells were maintained in vitro as a monolayer culture in DMEM medium supplemented with 10% heat inactivated fetal bovine serum and 100 μg/mL penicillin streptomycin at 37° C. in an atmosphere of 5% CO2 in air. The tumor cells were routinely subcultured twice weekly by trypsin-EDTA treatment. The cells growing to a confluency around 70%-80% were harvested and counted for tumor inoculation. The cultured MC-38 were harvested, re-suspended in base medium at a density of 1×10^7 cells/mL with viability >90%. Each mouse was inoculated subcutaneously at the right flank with 1×10^6 cells in 0.1 ml base medium for tumor development.
The treatments were started on day 5 after tumor inoculation when the tumor size reached 50-100 mm^3 (average tumor size 72 mm^3). Each group consisted of 8 tumor bearing mice.
The testing article was administrated at the dosing volume indicated to the mice according to the predetermined regimen as shown Table 2D-1. Testing article formulations were prepared according to standard procedures. Details regarding tumor measurements and endpoints, and statistical analysis are provided in EXAMPLE 3.
Tumor sizes were measured three times a week in two dimensions using a caliper, and the volume expressed in mm^3 using the formula: V=0.5 a×b^2 where a and b are the long and short diameters of the tumor, respectively. The tumor sizes were then used for the calculations of both tumor growth inhibition (TGI) and T/C values.
TGI is calculated for each group using the formula: […]
TVTreatment_DayN is the average tumor volume of a treatment group on a given day, TVTreatment_Day0 is the average tumor volume of the treatment group on the first day of treatment, TVVehicle_DayN is the average tumor volume of the vehicle control group on a given day, and TVVehicle_Day0 is the average tumor volume of the vehicle group on the first day of treatment.
The T/C value (in percent) is an indication of antitumor effectiveness, T/C (%)=RTVTreatment/RTVControl×100% (RTVTreatment: the mean RTV of the treatment group; RTVControl: the mean RTV of the vehicle treated group). RTV (relative tumor volume)=TVDayN/TVDay0. TVDayN and TVDay0 is the tumor volume on day N and Day 0 respectively. T/C (%)≤42% is considered as significant antitumor activity and <10% is considered as highly significant antitumor activity by the National Cancer Institute criteria.
Animal survival curve: When an individual animal reached to the termination endpoint (TV>2000 mm^3), the mouse was euthanized. The time from treatment initiation to the termination was deemed as its survival time. Survival curve was plotted by Kaplan-Meier method. Median survival time (MST) was calculated for each group. Increase of life span (ILS) was calculated according to the following formula: […]
ILS (%)>25% is considered as a biologically significant survival benefit. […]

CT26.WT tumors = test: Anti-tumor efficacy of Compound 1 in the CT26.WT model: schedule comparison (Example 5); format: in vivo, mice; conditions: for Mean Tumor Vol / TGI: Day 14; for Mean Tumor Vol / TGI / Cures / ILS: sc
Method: Female BALB/c mice were inoculated subcutaneously at right flank with CT26.WT cells for tumor development. Treatment started on day 6 after tumor inoculation when the tumor size reached 40-79 mm^3 (average tumor size 57 mm^3). Each group consisted of 8 tumor-bearing mice. The tumor sizes were measured three times per week during the treatment. The entire study was terminated on D57 after start of the treatment. Otherwise, the experimental methods and procedures are similar to those described in EXAMPLE 2B.

[1] = Compound 1 0.3 mg/kg qd x 14, s.c.
[2] = Group 2: 1.4 mpk 5-days ON 2-days OFF x4 cycles
[3] = Group 3: 1.4 mpk 5-days ON 2-days OFF x2 cycles followed by 3-days ON (Mon-Wed) 4-days OFF x2 cycles
[4] = Group 4: 1.4 mpk 5-days ON 2-days OFF x2 cycles followed by 3-days ON (Mon, Wed, Fri) 4-days OFF x2 cycles
[5] = Group 5: 2.33 mpk 3-days ON (Mon-Wed) 4-days OFF x4 cycles
[6] = Group 6: 2.33 mpk 3-days ON (Mon, Wed, Fri) 4-days OFF x4 cycles
[7] = Group 7: 0.5 mpk 5-days ON 2-days OFF x4 cycles
[8] = Group 8: 0.83 mpk 3-days ON (Mon-Wed) 4-days OFF x4 cycles
[9] = Group 9: 0.83 mpk 3-days ON (Mon, Wed, Fri) 4-days OFF x4 cycles

CC(=O)N[C@@H](Cc1c[nH]c2ccccc12)C(=O)N[C@@H](CCC(=O)C=[N+]=[N-])C(=O)OC(C)C [Compound 1, Isopropyl (S)-2-((S)-2-acetamido-3-(1H-indol-3-yl)propanamido)-6-diazo-5-oxohexanoate]
ILS (MC-38 tumors; [1]): 52.6% | MST (MC-38 tumors; [1]): 29 days | ILS (MC-38 tumors; Compound 1 1 mg/kg qd x 14, sc): 65.8% | MST (MC-38 tumors; Compound 1 1 mg/kg qd x 14, sc): 31.5 days | RTV at day 16 (MC-38 tumors; Cpd. 1 0.3 mg/kg qd x 14, s.c.): 2.73 ± 0.37 | RTV at day 16 (MC-38 tumors; Cpd. 1 1 mg/kg qd x 14, sc): 0.40 ± 0.11 | T/C (MC-38 tumors; Cpd. 1 0.3 mg/kg qd x 14, s.c.): 14.06% | TGI (MC-38 tumors; Cpd. 1 0.3 mg/kg qd x 14, s.c.): 90.53% | T/C (MC-38 tumors; Cpd. 1 1 mg/kg qd x 14, sc): 2.08% | TGI (MC-38 tumors; Cpd. 1 1 mg/kg qd x 14, sc): 103.26% | ILS (maximum median survival) (CT26.WT tumors; 1.4 mg/kg 5-day ON 2-day OFF): 106% | Long term cure (CT26.WT tumors; 1.4 mg/kg 5-day ON 2-day OFF, animals cured/animals in group): 1/8 | Tumor growth inhibition, schedule switch compared to 1.4 mg/kg 5-day ON 2-day OFF×4 cycles (CT26.WT tumors; 1.4 mg/kg, switching from 5-day ON 2-day OFF to 3-day ON 4-day OFF on Day 14): reduced tumor growth inhibition | Efficacy and survival benefit, Mon-Wed compared with Mon, Wed, Fri dosing (CT26.WT tumors; 3-day ON 4-day OFF schedules, equivalent total dose per cycle): equivalent efficacy and survival benefit | Tumor growth inhibition and survival benefit compared to 3-day ON 4-day OFF schedules (CT26.WT tumors; 5-day ON 2-day OFF schedule, equivalent total dose per cycle, 4 weeks): superior tumor growth inhibition and survival benefit | Mean Tumor Vol (CT26.WT tumors; [2]): 163 ± 25 mm^3 | TGI (CT26.WT tumors; [2]): 92% | Mean Tumor Vol (CT26.WT tumors; [3]): 155 ± 27 mm^3 | TGI (CT26.WT tumors; [3]): 93% | Mean Tumor Vol (CT26.WT tumors; [4]): 164 ± 12 mm^3 | TGI (CT26.WT tumors; [4]): 92% | Mean Tumor Vol (CT26.WT tumors; [5]): 169 ± 32 mm^3 | TGI (CT26.WT tumors; [5]): 92% | Mean Tumor Vol (CT26.WT tumors; [6]): 240 ± 45 mm^3 | TGI (CT26.WT tumors; [6]): 87% | Mean Tumor Vol (CT26.WT tumors; [7]): 302 ± 41 mm^3 | TGI (CT26.WT tumors; [7]): 82% | Mean Tumor Vol (CT26.WT tumors; [8]): 484 ± 87 mm^3 | TGI (CT26.WT tumors; [8]): 69% | Mean Tumor Vol (CT26.WT tumors; [9]): 488 ± 74 mm^3 | TGI (CT26.WT tumors; [9]): 68% | Cures (CT26.WT tumors; [2]): 12.5% | ILS (CT26.WT tumors; [2]): 106% | Cures (CT26.WT tumors; [3]): 0% | ILS (CT26.WT tumors; [3]): 67% | Cures (CT26.WT tumors; [4]): 12.5% | ILS (CT26.WT tumors; [4]): 94% | Cures (CT26.WT tumors; [5]): 0% | ILS (CT26.WT tumors; [5]): 86% | Cures (CT26.WT tumors; [6]): 0% | ILS (CT26.WT tumors; [6]): 94% | Cures (CT26.WT tumors; [7]): 0% | ILS (CT26.WT tumors; [7]): 67% | Cures (CT26.WT tumors; [8]): 0% | ILS (CT26.WT tumors; [8]): 67% | Cures (CT26.WT tumors; [9]): 0% | ILS (CT26.WT tumors; [9]): 39%
